# Legend:
# Assay in all cases: relative viability (nuclei count vs DMSO), 5 days (fraction); higher = more cells survive
# 201T = tested on: 201T
# Outline: (§1)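 Nuclei were stained with Hoechst during a one-step fixation (final 0.05% Triton X-100, 1% formaldehyde, 1 ug/ml Hoechst) carried out 5 days after dosing, then counted on 4× images. The cells, lung cancer lines in 1536-well plates, had been dosed by pin tool the day after seeding with one drug alone or a fixed anchor-drug dose plus five library-drug doses (not always all listed) in √10 steps. Relative viability is the nuclei count in treated wells divided by that in vehicle wells, and each value is the median of duplicate plates.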
# BEN = tested on: BEN
# Outline: as §1
# EKVX = tested on: EKVX
# Outline: as §1
# EPLC-272H = tested on: EPLC-272H
# Outline: as §1
# H3255 = tested on: H3255
# Outline: as §1
# HCC-44 = tested on: HCC-44
# Outline: as §1
# HCC-827 = tested on: HCC-827
# Outline: as §1
# HOP-62 = tested on: HOP-62
# Outline: as §1
# LCLC-97TM1 = tested on: LCLC-97TM1
# Outline: as §1
# LOU-NH91 = tested on: LOU-NH91
# Outline: as §1
# LU99A = tested on: LU99A
# Outline: as §1
# NCI-H1395 = tested on: NCI-H1395
# Outline: as §1
# NCI-H1437 = tested on: NCI-H1437
# Outline: as §1
# NCI-H1666 = tested on: NCI-H1666
# Outline: as §1
# NCI-H1975 = tested on: NCI-H1975
# Outline: as §1
# NCI-H2085 = tested on: NCI-H2085
# Outline: as §1
# NCI-H2087 = tested on: NCI-H2087
# Outline: as §1
# NCI-H2126 = tested on: NCI-H2126
# Outline: as §1
# NCI-H2342 = tested on: NCI-H2342
# Outline: as §1
# NCI-H358 = tested on: NCI-H358
# Outline: as §1
# NCI-H647 = tested on: NCI-H647
# Outline: as §1
# PC-3 [JPC-3] = tested on: PC-3 [JPC-3]
# Outline: as §1
compound,measurement,setting,value
CC(C)Oc1cc(Nc2nc(N[C@@H](C)c3ccc(F)cn3)ncc2Cl)n[nH]1 [AZ23] + NC(=O)Nc1cc(-c2cccc(F)c2)sc1C(=O)N[C@H]1CCCNC1 [AZD7762] (partner 0.2 µM),relative viability,201T; first compound 0.01 µM,0.321
same,relative viability,201T; first compound 0.03162 µM,0.576
same,relative viability,201T; first compound 0.3162 µM,0.743
same,relative viability,BEN; first compound 0.01 µM,0.659
same,relative viability,BEN; first compound 0.03162 µM,0.759
same,relative viability,BEN; first compound 0.3162 µM,0.746
same,relative viability,EKVX; first compound 0.01 µM,0.625
same,relative viability,EKVX; first compound 0.03162 µM,0.837
same,relative viability,EKVX; first compound 0.3162 µM,0.676
same,relative viability,EPLC-272H; first compound 0.03162 µM,0.254
same,relative viability,EPLC-272H; first compound 0.3162 µM,0.251
same,relative viability,H3255; first compound 0.01 µM,0.828
same,relative viability,H3255; first compound 0.03162 µM,0.958
same,relative viability,H3255; first compound 0.3162 µM,0.931
same,relative viability,HCC-44; first compound 0.01 µM,1.06
same,relative viability,HCC-44; first compound 0.03162 µM,1.01
same,relative viability,HCC-44; first compound 0.3162 µM,1.04
same,relative viability,HCC-827; first compound 0.01 µM,0.147
same,relative viability,HCC-827; first compound 0.03162 µM,0.223
same,relative viability,HCC-827; first compound 0.3162 µM,0.212
same,relative viability,HOP-62; first compound 0.01 µM,0.493
same,relative viability,HOP-62; first compound 0.03162 µM,0.804
same,relative viability,HOP-62; first compound 0.3162 µM,0.863
same,relative viability,LCLC-97TM1; first compound 0.01 µM,0.239
same,relative viability,LCLC-97TM1; first compound 0.03162 µM,0.327
same,relative viability,LCLC-97TM1; first compound 0.3162 µM,0.175
same,relative viability,LOU-NH91; first compound 0.01 µM,0.777
same,relative viability,LOU-NH91; first compound 0.03162 µM,0.853
same,relative viability,LOU-NH91; first compound 0.3162 µM,0.803
same,relative viability,LU99A; first compound 0.01 µM,0.269
same,relative viability,LU99A; first compound 0.03162 µM,0.444
same,relative viability,LU99A; first compound 0.3162 µM,0.507
same,relative viability,NCI-H1395; first compound 0.03162 µM,0.375
same,relative viability,NCI-H1395; first compound 0.3162 µM,0.432
same,relative viability,NCI-H1437; first compound 0.01 µM,1.17
same,relative viability,NCI-H1437; first compound 0.03162 µM,1.18
same,relative viability,NCI-H1437; first compound 0.3162 µM,1.19
same,relative viability,NCI-H1666; first compound 0.01 µM,0.91
same,relative viability,NCI-H1666; first compound 0.03162 µM,0.772
same,relative viability,NCI-H1666; first compound 0.3162 µM,0.977
same,relative viability,NCI-H1975; first compound 0.01 µM,0.555
same,relative viability,NCI-H1975; first compound 0.03162 µM,0.799
same,relative viability,NCI-H1975; first compound 0.3162 µM,0.828
same,relative viability,NCI-H2085; first compound 0.01 µM,0.923
same,relative viability,NCI-H2085; first compound 0.03162 µM,0.975
same,relative viability,NCI-H2085; first compound 0.3162 µM,1.08
same,relative viability,NCI-H2087; first compound 0.01 µM,1.6
same,relative viability,NCI-H2087; first compound 0.03162 µM,1.41
same,relative viability,NCI-H2087; first compound 0.3162 µM,1.32
same,relative viability,NCI-H2126; first compound 0.01 µM,1.04
same,relative viability,NCI-H2126; first compound 0.03162 µM,1.07
same,relative viability,NCI-H2126; first compound 0.3162 µM,1.07
same,relative viability,NCI-H2342; first compound 0.01 µM,0.442
same,relative viability,NCI-H2342; first compound 0.03162 µM,0.569
same,relative viability,NCI-H2342; first compound 0.3162 µM,0.483
same,relative viability,NCI-H358; first compound 0.01 µM,0.447
same,relative viability,NCI-H358; first compound 0.03162 µM,0.653
same,relative viability,NCI-H358; first compound 0.3162 µM,0.514
same,relative viability,NCI-H647; first compound 0.01 µM,0.296
same,relative viability,NCI-H647; first compound 0.03162 µM,0.615
same,relative viability,NCI-H647; first compound 0.3162 µM,0.806
same,relative viability,PC-3 [JPC-3]; first compound 0.01 µM,0.663
same,relative viability,PC-3 [JPC-3]; first compound 0.03162 µM,0.837
same,relative viability,PC-3 [JPC-3]; first compound 0.3162 µM,0.77

# Reference: the supplement of paper PMC10307832
